The target of assay [1] is T1, Human Indoleamine 2,3-dioxygenase (IDO) (Homo sapiens, UniProt P14902).
T1 construct: His tag (N); made in house; host or cells: E. coli
Kind of assay: Human IDO enzymatic assay (kynurenine level). The assay is classed as biochemical. The settings on record: 6 nM IDO, 10 μM L-Trp; geometric mean; read-out: IDO1 GMean: IC50 (μM) (Biochemical Assay). In outline:
(§1)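 N-terminally His-tagged enzymes expressed in E. coli were run in 50 mM sodium phosphate pH 6.5 with 10 mM ascorbate, catalase and Tween 20. IDO: 6 nM enzyme, 10 μM L-Trp, 5 μM methylene blue, 20 min RT. TDO: 1 nM enzyme, 350 μM L-Trp, 0.4 μM methylene blue, 70 min RT.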

Assay [2] concerns the target T2, Human Tryptophan 2,3-dioxygenase (TDO) (Homo sapiens, UniProt P48775).
T2 construct: His tag (N); made in house; host or cells: E. coli
Description: Human TDO enzymatic assay (kynurenine level). The class given is biochemical. The following applies: 1 nM TDO, 350 μM L-Trp; geometric mean; read-out: TDO GMean: IC50 (μM) (Biochemical Assay). The procedure, abridged: as §1

Assay [3] concerns the target T3, human IDO (IDO1-expressing HEK293 cells) (Homo sapiens, UniProt P14902).
T3 construct: expressed in transfected cells
Kind of assay: Cell based kynurenine assay, IDO1-expressing HEK293 cell clones. The settings on record: IDO1-expressing HEK293 cells, 24 hours, geometric mean; read-out: HEK293 IDO1 Kynurenine GMean IC50 (μM) (Cellular Assay). The procedure, abridged: (§2)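 Stably transfected HEK293 clones expressing human IDO1 or TDO (CMV promoter) were seeded at 2.5×10^4 cells/well and treated with serially diluted compounds for 24 h. Supernatant kynurenine was then measured, and % inhibition versus DMSO-treated cell and media-only controls was fitted by nonlinear regression to give IC50.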

The target of assay [4] is T4, human TDO (TDO-expressing HEK293 cells) (Homo sapiens, UniProt P48775).
T4 construct: expressed in transfected cells
Description: Cell based kynurenine assay, TDO-expressing HEK293 cell clones. The settings on record: TDO-expressing HEK293 cells, 24 hours, geometric mean; read-out: HEK293 TDO Kynurenine GMean IC50 (μM) (Cellular Assay). The procedure, abridged: as §2

The results in this text go back to US10508085B2, “Compounds and methods for IDO and TDO modulation, and indications therefor” (Plexxikon Inc., priority 2016, dated 2019).

Bounds are passed on as bounds.

T2 sequence (P48775 whole entry): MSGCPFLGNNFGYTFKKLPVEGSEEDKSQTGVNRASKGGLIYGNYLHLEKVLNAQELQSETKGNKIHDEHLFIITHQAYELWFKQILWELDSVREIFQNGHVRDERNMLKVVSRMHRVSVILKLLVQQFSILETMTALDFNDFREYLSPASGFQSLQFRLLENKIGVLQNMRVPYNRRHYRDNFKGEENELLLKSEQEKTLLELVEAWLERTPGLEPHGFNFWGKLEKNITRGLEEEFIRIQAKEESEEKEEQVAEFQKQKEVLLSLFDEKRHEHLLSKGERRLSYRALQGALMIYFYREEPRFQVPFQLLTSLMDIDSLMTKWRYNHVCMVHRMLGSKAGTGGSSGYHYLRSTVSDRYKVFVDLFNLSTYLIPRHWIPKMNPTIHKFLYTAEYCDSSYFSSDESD
T4 sequence (P48775 whole entry): as above
T3 sequence (P14902 whole entry): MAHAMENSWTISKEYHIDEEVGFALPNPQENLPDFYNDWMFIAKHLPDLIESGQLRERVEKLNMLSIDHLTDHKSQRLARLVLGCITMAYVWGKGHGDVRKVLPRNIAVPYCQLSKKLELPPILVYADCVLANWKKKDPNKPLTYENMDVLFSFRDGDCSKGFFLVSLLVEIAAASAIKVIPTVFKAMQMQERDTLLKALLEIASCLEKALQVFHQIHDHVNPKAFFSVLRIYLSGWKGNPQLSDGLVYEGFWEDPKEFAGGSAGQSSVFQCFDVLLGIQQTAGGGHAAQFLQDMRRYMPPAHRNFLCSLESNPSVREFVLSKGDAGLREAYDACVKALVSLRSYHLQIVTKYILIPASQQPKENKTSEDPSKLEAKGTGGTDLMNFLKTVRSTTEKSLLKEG
T1 sequence (P14902 whole entry): as above

As to `CC(C)(C1CCN(C(=O)CC(F)(F)F)CC1)C(O)c1cc(Cl)cc2cn[nH]c12` (centres unmarked) [Compound P-0459, 1-(4-(1-(5-chloro-1H-indazol-7-yl)-1-hydroxy-2-methylpropan-2-yl)piperidin-1-yl)-3,3,3-trifluoropropan-1-one], the IC50 in assay [1], in assay [2], in assay [3] and in assay [4] was 0.0001 to 10 µM in each case.
Turning to `CCCC(=O)N1CCC(C(C)(C)C(O)c2cc(Cl)cc3cn[nH]c23)CC1` (centres unmarked) [Compound P-0460, 1-(4-(1-(5-chloro-1H-indazol-7-yl)-1-hydroxy-2-methylpropan-2-yl)piperidin-1-yl)butan-1-one], the IC50 in assay [1], in assay [2], in assay [3] and in assay [4] was 0.0001 to 10 µM throughout.
`CC(C)(C1CCN(C(=O)CO)CC1)C(O)c1cc(Cl)cc2cn[nH]c12` (centres unmarked) [Compound P-0461, 1-(4-(1-(5-chloro-1H-indazol-7-yl)-1-hydroxy-2-methylpropan-2-yl)piperidin-1-yl)-2-hydroxyethan-1-one]: the half-inhibitory concentration (IC50) in assay [1], in assay [2], in assay [3] and in assay [4] was 0.0001 to 10 µM each time.
On to `O=C(NC1CCOCC1)N1CCC(C(F)(F)C(O)c2cc(Cl)cc3cn[nH]c23)CC1` (centres unmarked) [Compound P-0462, 4-(2-(5-chloro-1H-indazol-7-yl)-1,1-difluoro-2-hydroxyethyl)-N-(tetrahydro-2H-pyran-4-yl)piperidine-1-carboxamide], for which the concentration for half-maximal inhibition (IC50) in assay [1], in assay [2], in assay [3] and in assay [4] was 0.0001 to 10 µM each time.
`O=C(NC1CCS(=O)(=O)CC1)N1CCC(C(F)(F)C(O)c2cc(Cl)cc3cn[nH]c23)CC1` (centres unmarked) [Compound P-0463, 4-(2-(5-chloro-1H-indazol-7-yl)-1,1-difluoro-2-hydroxyethyl)-N-(1,1-dioxidotetrahydro-2H-thiopyran-4-yl)piperidine-1-carboxamide]: the IC50 (as a rule, the concentration that gives 50% inhibition) was 0.0001 to 10 µM in assay [1], 0.0001 to 10 µM in assay [2], 0.0001 to 10 µM in assay [3] and greater than 10 µM in assay [4].
On to `O=C(NC1COC1)N1CCC(C(F)(F)C(O)c2cc(Cl)cc3cn[nH]c23)CC1` (centres unmarked) [Compound P-0464, 4-(2-(5-chloro-1H-indazol-7-yl)-1,1-difluoro-2-hydroxyethyl)-N-(oxetan-3-yl)piperidine-1-carboxamide], for which the IC50 in assay [1], in assay [2], in assay [3] and in assay [4] was 0.0001 to 10 µM throughout.
As to `O=C(NCC1(O)CC1)N1CCC(C(F)(F)C(O)c2cc(Cl)cc3cn[nH]c23)CC1` (centres unmarked) [Compound P-0465, 4-(2-(5-chloro-1H-indazol-7-yl)-1,1-difluoro-2-hydroxyethyl)-N-((1-hydroxycyclopropyl)methyl)piperidine-1-carboxamide], the IC50 in assay [1], in assay [2], in assay [3] and in assay [4] was 0.0001 to 10 µM in each case.
As for `CC(C)(O)CNC(=O)N1CCC(C(F)(F)C(O)c2cc(Cl)cc3cn[nH]c23)CC1` (centres unmarked) [Compound P-0466, 4-(2-(5-chloro-1H-indazol-7-yl)-1,1-difluoro-2-hydroxyethyl)-N-(2-hydroxy-2-methylpropyl) piperidine-1-carboxamide], the IC50 in assay [1], in assay [2], in assay [3] and in assay [4] was 0.0001 to 10 µM throughout.
As for `O=C(NCC1CCS(=O)(=O)CC1)N1CCC(C(F)(F)C(O)c2cc(Cl)cc3cn[nH]c23)CC1` (centres unmarked) [Compound P-0467, 4-(2-(5-chloro-1H-indazol-7-yl)-1,1-difluoro-2-hydroxyethyl)-N-((1,1-dioxidotetrahydro-2H-thiopyran-4-yl)methyl)piperidine-1-carboxamide], the IC50 is 0.0001 to 10 µM in assay [1], 0.0001 to 10 µM in assay [2], 0.0001 to 10 µM in assay [3] and greater than 10 µM in assay [4].
For the compound `O=C(NCC1CCOCC1)N1CCC(C(F)(F)C(O)c2cc(Cl)cc3cn[nH]c23)CC1` (centres unmarked) [Compound P-0468, 4-(2-(5-chloro-1H-indazol-7-yl)-1,1-difluoro-2-hydroxyethyl)-N-((tetrahydro-2H-pyran-4-yl)methyl)piperidine-1-carboxamide], the IC50 in assay [1], in assay [2], in assay [3] and in assay [4] was 0.0001 to 10 µM each time.
With `CC(C)(C)OC(=O)N1CCC(C(F)(F)C(O)c2cc(Cl)cc3cn[nH]c23)CC1` (centres unmarked) [Compound P-0469, tert-butyl 4-(2-(5-chloro-1H-indazol-7-yl)-1,1-difluoro-2-hydroxyethyl) piperidine-1-carboxylate], the IC50 in assay [1], in assay [2], in assay [3] and in assay [4] was 0.0001 to 10 µM throughout.
Turning to `CC(C)(C1CCN(C(=O)Nc2cccs2)CC1)C(O)c1cc(Cl)cc2cn[nH]c12` (centres unmarked) [Compound P-0470, 4-(1-(5-chloro-1H-indazol-7-yl)-1-hydroxy-2-methylpropan-2-yl)-N-(thiophen-2-yl)piperidine-1-carboxamide], the IC50 in assay [1], in assay [2], in assay [3] and in assay [4] was 0.0001 to 10 µM each time.
`CC(C)(C1CCN(C(=O)NCS(C)(=O)=O)CC1)C(O)c1cc(Cl)cc2cn[nH]c12` (centres unmarked) [Compound P-0471, 4-(1-(5-chloro-1H-indazol-7-yl)-1-hydroxy-2-methylpropan-2-yl)-N-((methylsulfonyl)methyl)piperidine-1-carboxamide]: the IC50 in assay [1], in assay [2], in assay [3] and in assay [4] was 0.0001 to 10 µM each time.
In the case of `CC(C)(C1CCN(C(=O)NCCC(F)(F)F)CC1)C(O)c1cc(Cl)cc2cn[nH]c12` (centres unmarked) [Compound P-0472, 4-(1-(5-chloro-1H-indazol-7-yl)-1-hydroxy-2-methylpropan-2-yl)-N-(3,3,3-trifluoropropyl) piperidine-1-carboxamide], the half-inhibitory concentration (IC50) in assay [1], in assay [2], in assay [3] and in assay [4] was 0.0001 to 10 µM in each case.
Turning to `CC(C)(C1CCN(C(=O)NCC2CC2)CC1)C(O)c1cc(Cl)cc2cn[nH]c12` (centres unmarked) [Compound P-0473, 4-(1-(5-chloro-1H-indazol-7-yl)-1-hydroxy-2-methylpropan-2-yl)-N-(cyclopropylmethyl) piperidine-1-carboxamide], the IC50 in assay [1], in assay [2], in assay [3] and in assay [4] was 0.0001 to 10 µM throughout.
As for `CC(C)(C1CCN(C(=O)C2C(C)(C)C2(C)C)CC1)C(O)c1cc(Cl)cc2cn[nH]c12` (centres unmarked) [Compound P-0474, (4-(1-(5-chloro-1H-indazol-7-yl)-1-hydroxy-2-methylpropan-2-yl)piperidin-1-yl)(2,2,3,3-tetramethylcyclopropyl) methanone], the IC50 in assay [1], in assay [2], in assay [3] and in assay [4] was 0.0001 to 10 µM in each case.
With `CC(C)(O)CNC(=O)N1CCC(C(C)(C)C(O)c2cc(Cl)cc3cn[nH]c23)CC1` (centres unmarked) [Compound P-0475, 4-(1-(5-chloro-1H-indazol-7-yl)-1-hydroxy-2-methylpropan-2-yl)-N-(2-hydroxy-2-methylpropyl) piperidine-1-carboxamide], the 50% inhibitory concentration (IC50) in assay [1], in assay [2], in assay [3] and in assay [4] was 0.0001 to 10 µM in each case.
Consider `CC(C)(C1CCN(C(=O)NCCO)CC1)C(O)c1cc(Cl)cc2cn[nH]c12` (centres unmarked) [Compound P-0476, 4-(1-(5-chloro-1H-indazol-7-yl)-1-hydroxy-2-methylpropan-2-yl)-N-(2-hydroxyethyl) piperidine-1-carboxamide], for which the IC50 in assay [1], in assay [2], in assay [3] and in assay [4] was 0.0001 to 10 µM each time.
Consider `CC(C)(C1CCN(C(=O)NCc2ccccn2)CC1)C(O)c1cc(Cl)cc2cn[nH]c12` (centres unmarked) [Compound P-0477, 4-(1-(5-chloro-1H-indazol-7-yl)-1-hydroxy-2-methylpropan-2-yl)-N-(pyridin-2-ylmethyl)piperidine-1-carboxamide], for which the half-inhibitory concentration (IC50) in assay [1], in assay [2], in assay [3] and in assay [4] was 0.0001 to 10 µM throughout.
As to `C[C@H](NC(=O)N1CCC(C(C)(C)C(O)c2cc(Cl)cc3cn[nH]c23)CC1)c1ccccn1` (stereo partly drawn) [Compound P-0478, 4-(1-(5-chloro-1H-indazol-7-yl)-1-hydroxy-2-methylpropan-2-yl)-N-((S)-1-(pyridin-2-yl)ethyl)piperidine-1-carboxamide], the IC50 in assay [1], in assay [2], in assay [3] and in assay [4] was 0.0001 to 10 µM each time.
